One may read the IC50 as the concentration at which inhibition is half-maximal. A low value points to greater potency.

The test system of data set [1] is HCT116 cells. The data set can be described thus: Confocal microscopy imaging of actin and tubulin. It is filed as cell-based, human. The settings on record: 24 h at IC50. Here is the method: HCT116 cells were seeded on coverslips precoated with 0.1% gelatin in six-well culture plates at a density of 1 × 10^5 cells/well. […] Following the treatment, the cells were washed with PBS, fixed with 4% p-formaldehyde, washed, permeabilized with 0.1% Triton X-100, and blocked. Samples for actin staining were blocked with 1.5% BSA for 1 h and then stained with Alexa Fluor 488-conjugated Phalloidin (Thermo Fisher Scientific, 1:50 dilution, 20 min). Samples for tubulin staining were blocked with 5% goat serum for 1 h and incubated with primary antibody (anti-α-tubulin, Abcam, 1:200 dilution, 1 h) and Alexa Fluor-conjugated secondary antibody (goat antirabbit, Abcam, 1:500 dilution, 1 h). Both groups of samples were mounted with ProLong Diamond Antifade Mountant with DAPI (Invitrogen). Cells were visualized on a confocal microscope Leica TCS SP8 SMD.

For the next data set, the system named is 518A2. The data set can be described thus: MTT antiproliferative assay. It is filed as cell-based, human. The settings on record: 72 h, mean ± SD. The protocol: (§1) All of the cell lines were cultivated in DMEM medium (high glucose 4.5 g L^–1, PAA, Pasching, Austria) supplemented with gentamycin (50 μg mL^–1, Serva, Heidelberg, Germany) and 10% heat-inactivated fetal bovine serum (PAA). The medium for MRC5pd30 cells was further supplemented by 1% nonessential amino acids (Sigma-Aldrich, Prague, Czech Republic). All cells were cultured as adherent monolayers in a humidified incubator at 37 °C in a 5% CO2 atmosphere and subcultured twice a week with an appropriate plating density.
(§2) In vitro antiproliferative activity of Ru complexes was determined by the MTT or, alternatively, SRB assay as already described,[84] after 72 h of incubation of cells with various concentrations of the Ru complex. The reported IC50 values are an average of three independent experiments, each consisting of three replicates per concentration.
For orientation: Tetrazolium assays rely on reduction of a dye to a coloured formazan, in cell work by metabolically active cells.

The subject of the next data set is MCF-7. Description: MTT antiproliferative assay. The settings on record: 72 h, mean ± SD. It is filed as cell-based, human. The protocol:
as §1, §2

A further data set has as its system HCT116. Description: MTT antiproliferative assay. It counts as cell-based, human. The settings on record: 72 h, mean ± SD. Here is the method: as §1, §2
The next data set concerns HeLa. Description: MTT antiproliferative assay. It is filed as cell-based, human. The settings on record: 72 h, mean ± SD. The protocol:
as §1, §2

Another data set has as its system MRC5pd30. The data set can be described thus: MTT assay on noncancerous cells. It counts as cell-based, human. Particulars: 72 h, mean ± SD. The protocol:
as §1, §2

In data set [2] the test system is HCT116 cells. The data set can be described thus: Cellular uptake of Ru (ICP-MS). It counts as cell-based, human. Particulars: HCT116, 15 μM, 24 h; mean ± SEM. Here is the method:
In these experiments, 1 × 10^6 HCT116 cells were seeded on 100 mm Petri dishes. After overnight preincubation in a drug-free medium, the cells were treated with the Ru complexes (15 μM) for 24 h. Afterward, the cells were extensively washed with PBS (37 °C), detached using 0.25% trypsin, washed twice with ice-cold PBS, and counted by an automatic cell counter. The cell pellets were digested using a microwave acid (HCl) digestion system (CEM Mars). The quantity of Ru taken up by the cells was determined by inductively coupled plasma mass spectrometry (ICP-MS). All experiments were carried out in triplicate.

Data set [3] deals with HCT116 cells. Description: Calcium flux, Rhod-2 and Fluo-4 probes. It counts as cell-based, human. The settings on record: for effect on Ca2+ flux into the mitochondria induced by ionomycin: 2.5 h pretreatment, 10 μM (1 also 2.5, 5 μM), Rhod-2, 5 μM ionomycin. Here is the method:
The distribution of calcium ions in cytosol and mitochondria was studied using calcium-sensitive fluorescent probes. HCT116 cells were seeded at a density of 2 × 10^5 cells/well on six-well plates. After overnight cultivation, the cells were treated with Ru complexes at indicated concentrations for 2.5 h. The culture medium was then replaced with either 5 μM Rhod-2 or Fluo-4 in PBS supplemented with 2 mM CaCl2 and incubated for 30 min at 37 °C. At last, cells were harvested and suspended in PBS (with 2 mM CaCl2) or in PBS (with 2 mM CaCl2) supplemented with ionomycin (5 μM) for 30 min at 37 °C and analyzed using a BD FACSverse flow cytometer.
On the technique in general: Calcium flux is commonly read through the fluorescence of an indicator in the cells.

The subject of a further data set is RD. The data set can be described thus: MTT antiproliferative assay. Particulars: 72 h, mean ± SD. It is filed as cell-based, human. Here is the method:
as §1, with “density. In vitro antiproliferative activity of Ru complexes was determined by the MTT or, alternatively, SRB assay as already described,[84] after 72 h of incubation of cells with various concentrations of the Ru complex. The reported IC50 values are an average of three independent experiments, each consisting of three replicates per concentration.” for “density.”

The next data set has as its system HCT116 (3D). The data set can be described thus: Cytotoxicity in 3D spheroids (colonospheres), Cell Titer-Glo 3D. It is filed as cell-based, human. The settings on record: for effect on the morphology of 3D spheroids: 20 µM, 72 h, bright-field images; for IC50: Cell Titer-Glo, spheroids, 72 h of treatment. The protocol:
A spontaneous spheroid formation was used to generate colonospheres derived from the HCT116 cell line. The HCT116 cells were seeded on 96-well ultralow attachment plates (1400 cells/well) and cultivated in a tumor sphere-forming medium (DMEM/F12, supplemented with B27 (Invitrogen), BSA, bFGF (10 ng mL^–1), and EGF (20 ng mL^–1)) for 4 days. After the incubation period, colonospheres were treated with Ru complexes for another 3 days. The viability of colonospheres was determined by the Cell Titer-Glo 3D cell viability assay (Promega) according to the manufacturer’s instructions. The reported IC50 values are the average of three independent experiments, each consisting of three replicates per concentration level. Bright-field images of the spheroids were taken as well to determine the effect on the morphology of the spheroids.
A general note: ATP-based viability assays read luminescence as a measure of living cells.

Data set [4] in a line: Octanol/water partition coefficient, shake-flask, UV-vis. It counts as physicochemical. Here is the method:
Partition coefficients (Pow); IUPAC: […] A stock solution of the selected ruthenium compound (ca. 2 mg) was prepared by first adding MeOH (50 μL, to help solubilization), followed by octanol-saturated water (2.5 mL). The solution was diluted with octanol-saturated water (ca. 1:3 v/v ratio, cRu ≈ 10^-4 M, so that 1.5 ≤ A ≤ 2.0 at λmax), and its UV-vis spectrum was recorded (Aaq^0). An aliquot of the solution (Vaq = 1.2 mL) was transferred into a test tube, and water-saturated octanol (Vorg = Vaq = 1.2 mL) was added. […] The UV-vis spectrum of the aqueous phase was recorded (Aaq^f), and the partition coefficient was calculated as Pow = ([…], where […] are the absorbances in the aqueous phase before and after partition with the organic phase, respectively.[118] For 1, an inverse procedure was followed, starting from a solution of the compound in water-saturated octanol. The partition coefficient was calculated as Pow = Aorg^f/(Aorg^0 - Aorg^f), where Aorg^0 and Aorg^f are the absorbances in the organic phase before and after partition with the aqueous phase, respectively. The wavelength of the maximum absorption of each compound (280-380 nm range) was used for UV-vis quantitation. The procedure was repeated three times for each sample (from the same stock solution); the results are given as mean ± standard deviation (Table 2).

[RuCl(κ^3-tpm)(PPh3)2]Cl [compound 1]: the “effect on structure, shape, and layout of tubulin and actin networks” value (“effect on structure, shape, and layout” below) in the data set on HCT116 cells [1] is on record as “did not significantly affect”. The 50% inhibitory concentration (IC50) in the data set on 518A2 came to 2.6 ± 0.4 µM; with MCF-7 it was 2.4 ± 0.6 µM; with HCT116 it was 1.5 ± 0.1 µM; in the data set on HeLa, 4 ± 0.4 µM; in the data set with MRC5pd30, 5.8 ± 0.7 µM; with RD, 2.2 ± 0.2 µM. In the data set on HCT116 (3D), this substance came in with an IC50 of 2.5 ± 0.6 µM. Further, in the data set on HCT116 cells [2], the “Accumulation of ruthenium, ng Ru/10^6 cells” value (from here on “Accumulation of ruthenium”) stood at 145.1 ± 5.9 ng Ru/10^6 cells. Further, in the data set with HCT116 cells [3] (2.5 h, 10 μM, Fluo-4), the “increase in the concentration of Ca2+ in the cytoplasm” value was “most prominent”. The “effect on Ca2+ flux into the mitochondria induced by ionomycin” value (“effect … by ionomycin” below) in the data set with HCT116 cells [3] was “reduced Ca^2+ flux into the mitochondria”. Moreover, in the data set with HCT116 (3D), the “effect on the morphology of 3D spheroids” value is “almost completely disintegrated”. Moreover, the “fold more effective than cisplatin” value in the data set on HCT116 (3D) (3D spheroids HCT116) was “approximately 18 fold”.
In the case of “[RuCl(κ^3-tpm)(PPh3)(CNCy)]Cl [compound 8]”, the “effect on structure, shape, and layout” value in the data set with HCT116 cells [1] was “did not significantly affect”. In addition, the IC50 in the data set on 518A2 amounted to 10 ± 2 µM; in the data set on MCF-7, 10 ± 2 µM; with HCT116, 8 ± 2 µM; with HeLa it was 15 ± 1 µM; with MRC5pd30 it was 19.7 ± 0.4 µM; in the data set on RD, 6.6 ± 0.7 µM. Besides, it took 12.1 ± 2.7 µM to reach half-maximal inhibition in the data set on HCT116 (3D) (IC50). The “Accumulation of ruthenium” value with HCT116 cells [2] is listed as 59.4 ± 0.6 ng Ru/10^6 cells. Moreover, the “effect … by ionomycin” value in the data set with HCT116 cells [3] is listed as “less pronounced”. The “effect on the morphology of 3D spheroids” value in the data set with HCT116 (3D) was “heterogeneous morphology with several dissociated cell clumps”.
“[RuCl(κ^3-tpm)(PPh3){CNCH2P(O)(OEt2)2}]Cl [compound 9]”: the IC50 came to 38 ± 7 µM in the data set on 518A2; 43 ± 7 µM in the data set with MCF-7; 35 ± 6 µM with HCT116; 36 ± 2 µM in the data set on HeLa; 50.8 ± 0.4 µM in the data set on MRC5pd30; 24 ± 3 µM in the data set on RD. Also, in the data set with HCT116 cells [2], the “Accumulation of ruthenium” value came to 16.2 ± 1.4 ng Ru/10^6 cells. Further, in the data set with HCT116 cells [3], the “effect … by ionomycin” value is given as “insignificant”. Besides, the “log Pow” value in data set [4] is listed as “–0.20 ± 0.05”.
On to “[RuCl(κ^3-tpm)(PPh3){NCHN(Me)(CH)2}]Cl [compound 3]”, for which the IC50 with 518A2 amounted to 33 ± 5 µM; with MCF-7 it was 38 ± 8 µM; with HCT116 it was 25 ± 1 µM; in the data set on HeLa, 91 ± 3 µM; with MRC5pd30, 83.6 ± 0.5 µM; with RD it was 27 ± 4 µM. Also, in the data set with HCT116 cells [2], the “Accumulation of ruthenium” value was 66.1 ± 8.0 ng Ru/10^6 cells. The “log Pow” value in data set [4] is “–0.15 ± 0.03”.
Take “[RuCl(κ^3-tpm)(PPh3){P(OMe)3}]Cl [compound 7]”: in the data set on HCT116 cells [1], the “effect on structure, shape, and layout” value is reported as “did not significantly affect”. The IC50 was found to be 6.8 ± 0.8 µM with 518A2; 6 ± 1 µM with MCF-7; 6.7 ± 0.4 µM with HCT116; 10 ± 2 µM in the data set with HeLa; 24 ± 1 µM in the data set on MRC5pd30; 6 ± 1 µM in the data set on RD. In the data set with HCT116 (3D), this substance yielded an IC50 of 12.2 ± 2.5 µM. Further, in the data set on HCT116 cells [2], the “Accumulation of ruthenium” value stood at 63.3 ± 6.0 ng Ru/10^6 cells. The “effect … by ionomycin” value in the data set with HCT116 cells [3] is “less pronounced”. In addition, the “effect on the morphology of 3D spheroids” value in the data set on HCT116 (3D) was “heterogeneous morphology with several dissociated cell clumps”.

Values taken from PMC9376960, “Ruthenium(II)–Tris-pyrazolylmethane Complexes Inhibit Cancer Cell Growth by Disrupting Mitochondrial Calcium Homeostasis” (Journal of Medicinal Chemistry, 2022).
